Test system: high HER2 tumor cell line SK-BR-3
Test: Effect of small molecules on cell proliferation (CellTiter-Glo)
Format: cell-based
Details: SK-BR-3, 120 h; (IC50 of control sample Dxd / IC50 of test sample) x 100
Experimental: Study Purpose: In this experiment, cell viability was detected using CellTiter-Glo to evaluate the effects of the small molecule compounds on the proliferation of a high HER2 tumor cell line SK-BR-3, and to analyze the effects of the small molecule compounds on the proliferation of tumor cells.
(4) After the drug was added, the cells were incubated in the incubator for 120 h.
(3) ATP detection: Discard the culture medium and 100 μl/well DMEM was added, 50 μl/hole CTG was added into 96-well plate, protected from light using aluminum foil and oscillated using a vortex oscillator at room temperature of 200 rpm for 10 min.
GraphPad software was used to process the data. […] If necessary, the relative biological activity of sample A, i.e., ratio activity was calculated. Dxd was used as the control sample for the ratio activity calculation. Cell proliferation inhibition rate (%)=(luminescence value of drug-treated group−luminescence value of puro group)/(luminescence value of blank control group−luminescence value of puro group)×100 Ratio activity of sample (%)=(IC50 value of the control sample/IC50 value of the test sample)×100 Ratio activity of control sample (%)=(IC50 value of the control sample/IC50 value of the previous control sample)×100

Q: CC[C@@]1(O)C(=O)OCc2c1cc1n(c2=O)Cc2c-1nc1cc(F)c(Cl)c3c1c2[C@H](NC(=O)CCCO)CC3 [C680] was tested. Which “Ratio activity (%)” value did it give?
A: 0.546%

Q: How did the “Ratio activity (%)” value turn out when CC[C@@]1(O)C(=O)OCc2c1cc1n(c2=O)Cc2c-1nc1cc(F)c(Br)c3c1c2[C@H](NC(=O)CO)CC3 [C636] was run?
A: 0.682%

Q: How did the “Ratio activity (%)” value turn out when CC[C@@]1(O)C(=O)OCc2c1cc1n(c2=O)Cc2c-1nc1cc(F)c(Cl)c3c1c2C(NC(=O)[C@H](O)C1CC1)CC3 (mixture of isomers) [C624] was run?
A: 0.916%

Q: With CC[C@@]1(O)C(=O)OCc2c1cc1n(c2=O)Cc2c-1nc1cc(F)c(Cl)c3c1c2[C@H](NC(=O)COCCO)CC3 [C587] as the compound, how does the “Ratio activity (%)” value read?
A: 0.285%

Q: CC[C@@]1(O)C(=O)OCc2c1cc1n(c2=O)Cc2c-1nc1cc(F)c(C)c3c1c2[C@@H](NC(=O)C[C@H](C)O)CC3 [C589, (S)—N-((1S,9S)-9-ethyl-5-fluoro-9-hydroxy-4-methyl-10,13-dioxo-2,3,9,10,13,15-hexahydro-1H,12H-benzo[de]pyrano[3′,4′:6,7]indolizino[1,2-b]quinolin-1-yl)-3-hydroxybutanamide] was tested. Which “Ratio activity (%)” value did it give?
A: 1.325%

Q: With CC[C@@]1(O)C(=O)OCc2c1cc1n(c2=O)Cc2c-1nc1cc(F)c(C)c3c1c2[C@@H](NC(=O)C1(OCCO)CC1)CC3 [C565] as the compound, how does the “Ratio activity (%)” value read?
A: 1.381%

Q: CC[C@@]1(O)C(=O)OCc2c1cc1n(c2=O)Cc2c-1nc1cc(F)c(Cl)c3c1c2[C@@H](NC(=O)CCCO)CC3 [C679] was tested. Which “Ratio activity (%)” value did it give?
A: 0.49%

Q: With CC[C@@]1(O)C(=O)OCc2c1cc1n(c2=O)Cc2c-1nc1cc(F)c(Cl)c3c1c2[C@@H](NC(=O)[C@](C)(O)C(F)(F)F)CC3 [C704] as the compound, how does the “Ratio activity (%)” value read?
A: 2.271%

Q: For CC[C@@]1(O)C(=O)OCc2c1cc1n(c2=O)Cc2c-1nc1cc(F)c(C)c3c1c2[C@@H](NC(=O)C[C@@H](C)O)CC3 [C588], which “Ratio activity (%)” value is on record?
A: 1.019%

Q: For CC[C@@]1(O)C(=O)OCc2c1cc1n(c2=O)Cc2c-1nc1cc(F)c(OC)c3c1c2C(NC(=O)C(O)C(F)(F)F)CC3 (some centres unmarked) [C671], which “Ratio activity (%)” value is on record?
A: 0.365%

Q: Which “Ratio activity (%)” value does the source give for CC[C@@]1(O)C(=O)OCc2c1cc1n(c2=O)Cc2c-1nc1cc(F)c(Cl)c3c1c2[C@H](NC(=O)[C@@H](C)O)CC3 [C678] here?
A: 0.277%

Q: For CC[C@@]1(O)C(=O)OCc2c1cc1n(c2=O)Cc2c-1nc1cc(F)c(Cl)c3c1c2[C@H](NC(=O)CO)CC3 [C519, N-((1R,9S)-4-chloro-9-ethyl-5-fluoro-9-hydroxy-10,13-dioxo-2,3,9,10,13,15-hexahydro-1H,12H-benzo[de]pyrano[3,4′:6,7]indolizino[1,2-b]quinolin-1-yl)-2-hydroxyacetamide], which “Ratio activity (%)” value is on record?
A: 1.059%

Q: Which “Ratio activity (%)” value does the source give for CC[C@@]1(O)C(=O)OCc2c1cc1n(c2=O)Cc2c-1nc1cc(F)c(Cl)c3c1c2[C@H](N)CC3 [C731] here?
A: 0.82%

Q: With CC[C@@]1(O)C(=O)OCc2c1cc1n(c2=O)Cc2c-1nc1cc(F)c(Br)c3c1c2[C@@H](NC(=O)C[C@@H](C)O)CC3 [C603] as the compound, how does the “Ratio activity (%)” value read?
A: 1.439%

Q: How did the “Ratio activity (%)” value turn out when CC[C@@]1(O)C(=O)OCc2c1cc1n(c2=O)Cc2c-1nc1cc(F)c(Br)c3c1c2[C@@H](NC(=O)CO)CC3 [C637] was run?
A: 1.585%

Q: How did the “Ratio activity (%)” value turn out when CC[C@@]1(O)C(=O)OCc2c1cc1n(c2=O)Cc2c-1nc1cc(F)c(OC)c3c1c2C(NC(=O)C[C@H](C)O)CC3 (mixture of isomers) [C665] was run?
A: 0.495%

Q: How did the “Ratio activity (%)” value turn out when CC[C@@]1(O)C(=O)OCc2c1cc1n(c2=O)Cc2c-1nc1cc(F)c(Br)c3c1c2[C@H](NC(=O)C[C@@H](C)O)CC3 [C602] was run?
A: 0.29%

Q: How did the “Ratio activity (%)” value turn out when CC[C@@]1(O)C(=O)OCc2c1cc1n(c2=O)Cc2c-1nc1cc(F)c(Br)c3c1c2C(NC(=O)[C@H](C)O)CC3 (mixture of isomers) [C595] was run?
A: 0.832%

Q: Which “Ratio activity (%)” value does the source give for CC[C@@]1(O)C(=O)OCc2c1cc1n(c2=O)Cc2c-1nc1cc(F)c(Br)c3c1c2[C@@H](NC(=O)[C@@H](C)O)CC3 [C597] here?
A: 0.684%

Q: Which “Ratio activity (%)” value does the source give for CC[C@@]1(O)C(=O)OCc2c1cc1n(c2=O)Cc2c-1nc1cc(F)c(Cl)c3c1c2[C@@H](NC(=O)[C@H](O)C(F)(F)F)CC3 [C626] here?
A: 0.54%

Q: How did the “Ratio activity (%)” value turn out when CC[C@@]1(O)C(=O)OCc2c1cc1n(c2=O)Cc2c-1nc1cc(F)c(Cl)c3c1c2[C@@H](NC(=O)COCCO)CC3 [C586] was run?
A: 0.259%

Q: Which “Ratio activity (%)” value does the source give for CC[C@@]1(O)C(=O)OCc2c1cc1n(c2=O)Cc2c-1nc1cc(F)c(Cl)c3c1c2[C@@H](NC(=O)C1(O)CC1)CC3 [C593] here?
A: 2.514%

Q: For CC[C@@]1(O)C(=O)OCc2c1cc1n(c2=O)Cc2c-1nc1cc(F)c(Cl)c3c1c2[C@@H](NC(=O)[C@@H](O)C1CC1)CC3 [C622], which “Ratio activity (%)” value is on record?
A: 0.669%

Q: With CC[C@@]1(O)C(=O)OCc2c1cc1n(c2=O)Cc2c-1nc1cc(F)c(Br)c3c1c2[C@H](NC(=O)C[C@H](C)O)CC3 [C600] as the compound, how does the “Ratio activity (%)” value read?
A: 0.62%

Q: CC[C@@]1(O)C(=O)OCc2c1cc1n(c2=O)Cc2c-1nc1cc(F)c(Cl)c3c1c2[C@@H](N)CC3 [C730] was tested. Which “Ratio activity (%)” value did it give?
A: 1.35%

Q: Which “Ratio activity (%)” value does the source give for CC[C@@]1(O)C(=O)OCc2c1cc1n(c2=O)Cc2c-1nc1cc(F)c(OC)c3c1c2C(NC(=O)CO)CC3 (mixture of isomers) [C664] here?
A: 0.269%

Q: CC[C@@]1(O)C(=O)OCc2c1cc1n(c2=O)Cc2c-1nc1cc(F)c(Cl)c3c1c2[C@@H](NC(=O)[C@@H](O)C(F)(F)F)CC3 [C627] was tested. Which “Ratio activity (%)” value did it give?
A: 5.054%

Q: CC[C@@]1(O)C(=O)OCc2c1cc1n(c2=O)Cc2c-1nc1cc(F)c(Cl)c3c1c2[C@H](NC(=O)C1(O)CC1)CC3 [C594] was tested. Which “Ratio activity (%)” value did it give?
A: 0.568%

Q: How did the “Ratio activity (%)” value turn out when CC[C@@]1(O)C(=O)OCc2c1cc1n(c2=O)Cc2c-1nc1cc(F)c(Cl)c3c1c2[C@H](NC(=O)[C@](C)(O)C(F)(F)F)CC3 [C703] was run?
A: 0.846%

Q: Which “Ratio activity (%)” value does the source give for CC[C@@]1(O)C(=O)OCc2c1cc1n(c2=O)Cc2c-1nc1cc(F)c(OC)c3c1c2C(NC(=O)[C@@H](C)O)CC3 (some centres unmarked) [C668] here?
A: 0.231%

Q: For CC[C@@]1(O)C(=O)OCc2c1cc1n(c2=O)Cc2c-1nc1cc(F)c(C)c3c1c2[C@@H](NC(=O)CO)CC3 [Dxd, reference compound], which “Ratio activity (%)” value is on record?
A: 1%

Q: CC[C@@]1(O)C(=O)OCc2c1cc1n(c2=O)Cc2c-1nc1cc(F)c(Cl)c3c1c2C(NC(=O)C[C@H](C)O)CC3 (mixture of isomers) [C625] was tested. Which “Ratio activity (%)” value did it give?
A: 0.783%

Q: How did the “Ratio activity (%)” value turn out when CC[C@@]1(O)C(=O)OCc2c1cc1n(c2=O)Cc2c-1nc1cc(F)c(Cl)c3c1c2[C@@H](NC(=O)CO)CC3 [C518, N-((1S,9S)-4-chloro-9-ethyl-5-fluoro-9-hydroxy-10,13-dioxo-2,3,9,10,13,15-hexahydro-1H,12H-benzo[de]pyrano[3′,4′:6,7]indolizino[1,2-b]quinolin-1-yl)-2-hydroxyacetamide] was run?
A: 2.272%

Q: Which “Ratio activity (%)” value does the source give for CC[C@@]1(O)C(=O)OCc2c1cc1n(c2=O)Cc2c-1nc1cc(F)c(C)c3c1c2[C@@H](NC(=O)[C@@H](OCCO)C1CC1)CC3 [C562] here?
A: 1.029%

Q: With CC[C@@]1(O)C(=O)OCc2c1cc1n(c2=O)Cc2c-1nc1cc(F)c(OC)c3c1c2C(NC(=O)C1(O)CC1)CC3 (mixture of isomers) [C667] as the compound, how does the “Ratio activity (%)” value read?
A: 0.658%

Q: With CC[C@@]1(O)C(=O)OCc2c1cc1n(c2=O)Cc2c-1nc1cc(F)c(Br)c3c1c2[C@@H](NC(=O)C(O)C(F)(F)F)CC3 (mixture of isomers) [C620] as the compound, how does the “Ratio activity (%)” value read?
A: 0.384%

Q: With CC[C@@]1(O)C(=O)OCc2c1cc1n(c2=O)Cc2c-1nc1cc(F)c(Br)c3c1c2[C@H](NC(=O)C(O)C(F)(F)F)CC3 (mixture of isomers) [C619] as the compound, how does the “Ratio activity (%)” value read?
A: 0.434%

Q: How did the “Ratio activity (%)” value turn out when CC[C@@]1(O)C(=O)OCc2c1cc1n(c2=O)Cc2c-1nc1cc(F)c(C)c3c1c2[C@@H](NC(=O)COCCO)CC3 [C504] was run?
A: 0.703%

Q: CC[C@@]1(O)C(=O)OCc2c1cc1n(c2=O)Cc2c-1nc1cc(F)c(C)c3c1c2[C@@H](NC(=O)[C@](C)(O)C(F)(F)F)CC3 [C687] was tested. Which “Ratio activity (%)” value did it give?
A: 1.835%

Q: How did the “Ratio activity (%)” value turn out when CC[C@@]1(O)C(=O)OCc2c1cc1n(c2=O)Cc2c-1nc1cc(F)c(Cl)c3c1c2[C@@H](NC(=O)[C@@H](C)O)CC3 [C677] was run?
A: 1.008%

Q: For CC[C@@]1(O)C(=O)OCc2c1cc1n(c2=O)Cc2c-1nc1cc(F)c(Br)c3c1c2[C@H](NC(=O)[C@@H](C)O)CC3 [C596], which “Ratio activity (%)” value is on record?
A: 0.911%

Q: Which “Ratio activity (%)” value does the source give for CC[C@@]1(O)C(=O)OCc2c1cc1n(c2=O)Cc2c-1nc1cc(F)c(Br)c3c1c2[C@@H](NC(=O)C[C@H](C)O)CC3 [C601] here?
A: 1.826%

Q: Which “Ratio activity (%)” value does the source give for CC[C@@]1(O)C(=O)OCc2c1cc1n(c2=O)Cc2c-1nc1cc(F)c(C)c3c1c2[C@@H](NC(=O)[C@@](C)(O)C(F)(F)F)CC3 [C688] here?
A: 0.744%

Q: How did the “Ratio activity (%)” value turn out when CC[C@@]1(O)C(=O)OCc2c1cc1n(c2=O)Cc2c-1nc1cc(F)c(C)c3c1c2[C@@H](NC(=O)[C@H](OCCO)C1CC1)CC3 [C563] was run?
A: 1.284%

— patent US11999748B2, “Exatecan derivatives, linker-payloads, and conjugates and thereof” (priority 2021, dated 2024)
